“Also recorded” adds a separate entry of the source.
Assays:
[1] = system: translation of T7-tagBFP-Gluc; assay: Translation inhibition assay (T7-tagBFP-Gluc RNA in Huh7 cells); assay type: cell-based; settings: 4 days
Description: Generation of T7-tagBFP-Gluc. To make the T7-TagBFP-GLuc construct, SP6-TagBFP-2A-FLuc was used as a template and the primers PU-O-6099 and PU-O-6100 were designed to partially anneal immediately upstream and downstream of the SP6 promoter. The unbound portions of PU-O-6099 and PU-O-6100 contained the T7 promoter sequence. […] Next, PCR amplification of the T7-TagBFP-2A backbone was completed using the Q5® High-Fidelity DNA Polymerase and PU-O-6101 and PU-O-6102 as the primers. […] The Gluc insert was then ligated to the T7-TagBFP-2A backbone using the In-Fusion® HD Cloning Kit.
Translation Inhibition Assay. Huh7 cells were seeded at 6,250 cells per well in 96-well format. The cells were then transfected with 50 ng T7-TagBFP-Gluc in vitro transcribed RNA per well. Five hours post-transfection, transfection medium was changed to medium containing isocotoin, ribavirin, cycloheximide, or roclagamide at 6 or 7 different concentrations. DMSO concentration was kept constant in all the wells at 0.125%. For each drug dose, triplicate wells were tested. On day four post-transfection, a luciferase assay was performed on supernatant media to measure Gluc expression.

Huh7 cells = assay: ATP-based cell viability assay (CellTiterGlo); settings: ATP live-cell viability assay
Description: Measurement of Cytotoxicity by CellTiterGlo Assay. […] Readout was performed using a Berthold luminometer.

[2] = system: p6/Gluc (HEVΔORF2/3[Gluc]) replicon, KernowC1p6 genotype 3; assay: Dose titration against p6/Gluc replicon in Huh7 cells, Gaussia luciferase readout; assay type: cell-based, hepatitis E virus; settings: for inhibition of p6/Gluc (HEV) replication, in words: Huh7 cells, supernatant Gluc
Description: Gaussia luciferase assays.
Statistics—calculation of IC50. Half maximal inhibitory concentrations were calculated by graphing dose-titration data as nonlinear curve fits with three parameters using GraphPad Prism (v8.1.2).

| Structure (SMILES) | cytotoxicity / inhibition of cell growth, in words (Huh7 cells) | inhibition of p6/Gluc (HEV) replication, in words [2] | also measured |
| --- | --- | --- | --- |
| COc1ccc([C@@]23Oc4cc(OC)cc(OC)c4C2(O)[C@H](O)[C@H](C(=O)N(C)C)[C@H]3c2ccccc2)cc1 (stereo in doubt) [roclagamide, (1R,2R,3S,3aR,8bS)-1,8b-dihydroxy-6,8-dimethoxy-3a-(4-methoxyphenyl)-N,N-dimethyl-3-phenyl-2,3-dihydro-1H-cyclopenta[b][1]benzofuran-2-carboxamide, reference compound] | – | – | suppression of Gluc levels [1]: ~10 fold |
| C=CCNC1=C2C[C@@H](C)C[C@H](OC)[C@H](O)[C@@H](C)/C=C(\C)[C@H](OC(N)=O)[C@@H](OC)/C=C\C=C(/C)C(=O)NC(=CC1=O)C2=O [17-AAG, [(4E,6Z,8S,9S,10E,12S,13R,14S,16R)-13-hydroxy-8,14-dimethoxy-4,10,12,16-tetramethyl-3,20,22-trioxo-19-(prop-2-enylamino)-2-azabicyclo[16.3.1]docosa-1(21),4,6,10,18-pentaen-9-yl] carbamate, reference compound] | cytostatic properties; also recorded: inhibitors of cell growth | inhibited HEV replication; also recorded: potent inhibitors | – |
| CCNC(=O)c1noc(-c2cc(C(C)C)c(O)cc2O)c1-c1ccc(CN2CCOCC2)cc1 [AUY-922, 5-(2,4-dihydroxy-5-propan-2-ylphenyl)-N-ethyl-4-[4-(morpholin-4-ylmethyl)phenyl]-1,2-oxazole-3-carboxamide, reference compound] | – | inhibited HEV replication; also recorded: potent inhibitors; also recorded: most potent analogs | – |
| O=C(c1ccc(Cl)cc1)c1ccc(O)cc1O [IBS102, (4-chlorophenyl)-(2,4-dihydroxyphenyl)methanone] | – | – | fold greater decrease in RLU than isocotoin ([2]; 25 μM dose, first round of SAR): approximately 10 fold |
| COc1ccc(-c2c(C)noc2-c2ccc(O)cc2O)cc1 [IBS672, 4-[4-(4-methoxyphenyl)-3-methyl-1,2-oxazol-5-yl]benzene-1,3-diol] | – | – | fold greater decrease in RLU than isocotoin ([2]; 1.5625 μM, second round of SAR): approximately 40 fold |
| CC(C)c1cc(-c2n[nH]c(=O)n2-c2ccc3c(ccn3C)c2)c(O)cc1O [STA-9090, 3-(2,4-dihydroxy-5-propan-2-ylphenyl)-4-(1-methylindol-5-yl)-1H-1,2,4-triazol-5-one, reference compound] | cytostatic properties; also recorded: inhibitors of cell growth | inhibited HEV replication; also recorded: potent inhibitors | – |
| CCNC(=O)c1noc(-c2cc(Cl)c(O)cc2O)c1-c1ccc(OC)cc1 [VER-50589, 5-(5-chloro-2,4-dihydroxyphenyl)-N-ethyl-4-(4-methoxyphenyl)-1,2-oxazole-3-carboxamide, reference compound] | cytostatic properties; also recorded: inhibitors of cell growth | inhibited HEV replication; also recorded: potent inhibitors; also recorded: most potent analogs | – |
| C[C@@H]1C[C@@H]([C@H](O)CC2CC(=O)NC(=O)C2)C(=O)[C@@H](C)C1 [cycloheximide, reference compound] | – | – | suppression of Gluc levels [1]: ~10 fold |
| C[C@H]1O[C@@H](O[C@H]2[C@@H](O)C[C@H](O[C@H]3[C@@H](O)C[C@H](O[C@H]4CC[C@@]5(C)[C@H](CC[C@@H]6[C@@H]5CC[C@]5(C)[C@@H](C7=CC(=O)OC7)[C@@H](O)C[C@]65O)C4)O[C@@H]3C)O[C@@H]2C)C[C@H](O)[C@@H]1O [gitoxin] | high cytotoxicity | dose-dependent inhibition | – |
